“And” between values parts separate entries of the source, which are not always exact repeats. Identical values can stand only once.
Key:
Type in all cases: in vivo
[1] = test system: kochia (Kochia scoparia L; KCHSC); assay: Postemergence herbicidal activity of mixtures in cereal crops (greenhouse, visual injury)
Procedure, shortened: (§1)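 Injury ratings (0–100%) taken 20–22 days post-spray versus solvent-blank controls. Treatment: 187 L/ha track spray, 2nd–3rd leaf plants, Compound A/B with second cereal herbicide.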

[2] = test system: Italian ryegrass (Lolium multiflorum L; LOLMU); assay: as above; details: for LOLMU: Table 13
Procedure, shortened: as §1

[3] = test system: annual bluegrass (Poa annua L; POAAN); assay: as above
Procedure, shortened: as §1

[4] = test system: downy brome (Bromus tectorum L; BROTE); assay: as above
Procedure, shortened: as §1

[5] = test system: lady's-thumb (Polygonum persicaria L; POLPE); assay: as above
Procedure, shortened: as §1

[6] = test system: wild mustard (Sinapis arvensis L; SINAR); assay: as above
Procedure, shortened: as §1

[7] = test system: canola (Brassica napus L; BRSNN); assay: as above
Procedure, shortened: as §1

[8] = test system: Ischaemum rugosum SALISB. (ISCRU); assay: Postemergence herbicidal mixtures for weed control in direct seeded rice (greenhouse, visual % injury)
[9] = test system: Leptochloa chinensis (L.) NEES (LEFCH); assay: as above; details: for % Injury Ob: LEFCH
[10] = test system: Digitaria sanguinalis (L.) SCOP. (DIGSA); assay: as above
[11] = test system: Cyperus esculentus L. (CYPES); assay: as above; details: for % Injury Ob: CYPES

Question: With `O=C(O)c1c(Cl)ccc2cc(Cl)cnc12` [Quinclorac] as the compound, how does the “KCHSC Ob” value ([1]; 140 g/ha alone) read?
Answer: 0%

Question: Which LOLMU ([2]; 35 g/ha) does the source give for `COc1c(Cl)ccc(-c2cc(N)c(Cl)c(C(=O)O)n2)c1F` [Compound A TEA, 4-amino-3-chloro-6-(4-chloro-2-fluoro-3-methoxyphenyl)pyridine-2-carboxylic acid] here?
Answer: 0%

Question: What about the “LOLMU Ob” value ([2]; 35 g/ha, Table 14) of the same compound?
Answer: 0%

Question: What about the “LOLMU Ob” value ([2]; 35 g/ha, Table 17) of the same compound?
Answer: 0%

Question: And the LOLMU ([2]; 70 g/ha)?
Answer: 0%

Question: What about the “LOLMU Ob” value ([2]; 70 g/ha, Table 14) of the same compound?
Answer: 3%

Question: And the “LOLMU Ob” value ([2]; 70 g/ha, Table 17)?
Answer: 0%

Question: And the LOLMU ([2]; 140 g/ha)?
Answer: 0%

Question: What about the “LOLMU Ob” value ([2]; 140 g/ha, Table 14) of the same compound?
Answer: 3%

Question: And the “LOLMU Ob” value ([2]; 140 g/ha, Table 17)?
Answer: 5%

Question: What about the “POAAN Ob” value ([3]; 35 g/ha, Table 16) of the same compound?
Answer: 0%

Question: What about the “POAAN Ob” value ([3]; 35 g/ha, Table 17) of the same compound?
Answer: 0%

Question: And the “POAAN Ob” value ([3]; 70 g/ha, Table 16)?
Answer: 0%

Question: And the “POAAN Ob” value ([3]; 70 g/ha, Table 17)?
Answer: 0%

Question: What about the “POAAN Ob” value ([3]; 140 g/ha, Table 16) of the same compound?
Answer: 0%

Question: What about the “POAAN Ob” value ([3]; 140 g/ha, Table 17) of the same compound?
Answer: 0%

Question: What about the “BROTE Ob” value ([4]; 35 g/ha, Table 15) of the same compound?
Answer: 0%

Question: What about the “BROTE Ob” value ([4]; 35 g/ha, Table 16) of the same compound?
Answer: 0%

Question: And the “BROTE Ob” value ([4]; 35 g/ha, Table 18)?
Answer: 0%

Question: And the “BROTE Ob” value ([4]; 70 g/ha, Table 15)?
Answer: 0%

Question: What about the “BROTE Ob” value ([4]; 70 g/ha, Table 16) of the same compound?
Answer: 0%

Question: What about the “BROTE Ob” value ([4]; 70 g/ha, Table 18) of the same compound?
Answer: 3%

Question: What about the “BROTE Ob” value ([4]; 140 g/ha, Table 15) of the same compound?
Answer: 0%

Question: And the “BROTE Ob” value ([4]; 140 g/ha, Table 16)?
Answer: 0%

Question: And the “BROTE Ob” value ([4]; 140 g/ha, Table 18)?
Answer: 3%

Question: And the “KCHSC Ob” value ([1]; 8.75 g/ha)?
Answer: 35%

Question: And the “KCHSC Ob” value ([1]; 8.75 g/ha alone)?
Answer: 65%

Question: And the “KCHSC Ob” value ([1]; 17.5 g/ha)?
Answer: 60%

Question: And the “KCHSC Ob” value ([1]; 17.5 g/ha alone)?
Answer: 77%

Question: What about the “KCHSC Ob” value ([1]; 35 g/ha) of the same compound?
Answer: 65%

Question: And the “KCHSC Ob” value ([1]; 35 g/ha alone)?
Answer: 92%

Question: What about the “KCHSC Ob” value ([1]; 70 g/ha) of the same compound?
Answer: 70%

Question: And the “KCHSC Ob” value ([1]; 70 g/ha alone)?
Answer: 99%

Question: What about the “POLPE Ob” value ([5]; 8.75 g/ha alone) of the same compound?
Answer: 30%

Question: What about the “POLPE Ob” value ([5]; 17.5 g/ha alone) of the same compound?
Answer: 41%

Question: And the “POLPE Ob” value ([5]; 35 g/ha alone)?
Answer: 68%

Question: What about the “SINAR Ob” value ([6]; 8.75 g/ha) of the same compound?
Answer: 35%

Question: And the “SINAR Ob” value ([6]; 17.5 g/ha)?
Answer: 60%

Question: And the “SINAR Ob” value ([6]; 35 g/ha)?
Answer: 65%

Question: And the “SINAR Ob” value ([6]; 70 g/ha)?
Answer: 70%

Question: How did the “BRSNN Ob” value ([7]; 8.75 g/ha alone) turn out when `COC(=O)c1nc(-c2ccc(Cl)c(OC)c2F)nc(N)c1Cl` [Compound B Methyl, 6-amino-5-chloro-2-(4-chloro-2-fluoro-3-methoxyphenyl)pyrimidine-4-carboxylic acid methyl ester] was run?
Answer: 20%

Question: What about the “BRSNN Ob” value ([7]; 17.5 g/ha alone) of the same compound?
Answer: 35%

Question: What about the “BRSNN Ob” value ([7]; 35 g/ha alone) of the same compound?
Answer: 50%

Question: What about the “BRSNN Ob” value ([7]; 70 g/ha alone) of the same compound?
Answer: 55%

Question: For `COC(=O)c1nc(-c2ccc(Cl)c(OC)c2F)cc(N)c1Cl` [Compound A Methyl, 4-amino-3-chloro-6-(4-chloro-2-fluoro-3-methoxyphenyl)pyridine-2-carboxylic acid methyl ester], which “LOLMU Ob” value ([2]; 35 g/ha, Table 10) is on record?
Answer: 3%

Question: And the “LOLMU Ob” value ([2]; 70 g/ha, Table 10)?
Answer: 20%

Question: And the “LOLMU Ob” value ([2]; 140 g/ha, Table 10)?
Answer: 40%

Question: What about the “POAAN Ob” value ([3]; 35 g/ha, Table 9) of the same compound?
Answer: 0%

Question: And the “POAAN Ob” value ([3]; 35 g/ha, Table 10)?
Answer: 0%

Question: And the “POAAN Ob” value ([3]; 70 g/ha, Table 9)?
Answer: 3%

Question: What about the “POAAN Ob” value ([3]; 70 g/ha, Table 10) of the same compound?
Answer: 3%

Question: What about the “POAAN Ob” value ([3]; 140 g/ha, Table 9) of the same compound?
Answer: 3%

Question: And the “POAAN Ob” value ([3]; 140 g/ha, Table 10)?
Answer: 3%

Question: And the “BRSNN Ob” value ([7]; 8.75 g/ha)?
Answer: 50%

Question: What about the “BRSNN Ob” value ([7]; 17.5 g/ha) of the same compound?
Answer: 50%

Question: And the “BRSNN Ob” value ([7]; 35 g/ha)?
Answer: 50%

Question: What about the “BRSNN Ob” value ([7]; 70 g/ha) of the same compound?
Answer: 50%

Question: And the “BROTE Ob” value ([4]; 35 g/ha, Table 8)?
Answer: 0.0%

Question: And the “BROTE Ob” value ([4]; 35 g/ha, Table 9)?
Answer: 0%

Question: What about the “BROTE Ob” value ([4]; 35 g/ha, Table 10) of the same compound?
Answer: 0%

Question: What about the “BROTE Ob” value ([4]; 70 g/ha, Table 8) of the same compound?
Answer: 0.0%

Question: What about the “BROTE Ob” value ([4]; 70 g/ha, Table 9) of the same compound?
Answer: 0%

Question: What about the “BROTE Ob” value ([4]; 70 g/ha, Table 10) of the same compound?
Answer: 0%

Question: What about the “BROTE Ob” value ([4]; 140 g/ha, Table 8) of the same compound?
Answer: 13%

Question: And the “BROTE Ob” value ([4]; 140 g/ha, Table 9)?
Answer: 13%

Question: What about the “BROTE Ob” value ([4]; 140 g/ha, Table 10) of the same compound?
Answer: 13%

Question: And the “POLPE Ob” value ([5]; 8.75 g/ha)?
Answer: 50%

Question: What about the “POLPE Ob” value ([5]; 17.5 g/ha) of the same compound?
Answer: 50%

Question: What about the “POLPE Ob” value ([5]; 35 g/ha) of the same compound?
Answer: 65%

Question: What about the “POLPE Ob” value ([5]; 70 g/ha) of the same compound?
Answer: 70%

Question: What about the “SINAR Ob” value ([6]; 17.5 g/ha) of the same compound?
Answer: 70% and 80%

Question: And the “SINAR Ob” value ([6]; 35 g/ha)?
Answer: 80% and 85%

Question: What about the “SINAR Ob” value ([6]; 70 g/ha) of the same compound?
Answer: 85%

Question: And the “% Injury ISCRU Ob” value ([8]; alone 8.75 g/ha)?
Answer: 50%

Question: And the “% Injury ISCRU Ob” value ([8]; alone 17.5 g/ha)?
Answer: 55%

Question: What about the “% Injury Ob” value ([9]; 17.5 g/ha alone) of the same compound?
Answer: 75% and 50%

Question: What about the “% Injury Ob” value ([9]; 35 g/ha alone) of the same compound?
Answer: 90%

Question: And the “% Injury LEFCH Ob” value ([9]; alone 4.38 g/ha)?
Answer: 30%

Question: What about the “% Injury LEFCH Ob” value ([9]; alone 8.75 g/ha) of the same compound?
Answer: 40%

Question: And the “% Injury Ob” value ([10]; 8.75 g/ha alone)?
Answer: 20%

Question: And the “% Injury Ob” value ([10]; 17.5 g/ha alone)?
Answer: 50%

Question: What about the “% Injury 11 DAA CYPES Ob” value ([11]; alone 8.75 g/ha) of the same compound?
Answer: 60%

Question: And the “% Injury 11 DAA CYPES Ob” value ([11]; alone 17.5 g/ha)?
Answer: 70%

Question: And the “% Injury 21 DAA CYPES Ob” value ([11]; alone 8.75 g/ha)?
Answer: 100%

Question: And the “% Injury 21 DAA CYPES Ob” value ([11]; alone 17.5 g/ha)?
Answer: 99%

Question: What about the “% Injury Ob” value ([11]; 4.38 g/ha alone) of the same compound?
Answer: 40%

Question: What about the “% Injury Ob” value ([11]; 8.75 g/ha alone) of the same compound?
Answer: 60%

Question: What about the “% Injury CYPES Ob” value ([11]; alone 4.38 g/ha) of the same compound?
Answer: 70% and 85%

Reference: patent publication US10556865B2, “Synergistic herbicidal composition containing certain pyridine or pyrimidine carboxylic acids and certain cereal and rice herbicides” (Dow AgroSciences, LLC, priority 2007, dated 2020)
